From patent US9688630B2, “3,3′-disubstituted indolines as inhibitors of cholesterol ester transfer protein” (Merck Sharp & Dohme Corp., priority 2013, dated 2017)

Assays:
recombinant CETP = molecular target: T1, recombinant CETP (Homo sapiens, UniProt P11597); test: RTA assay using recombinant CETP (2% RTA); assay type: biochemical; conditions: 2% human serum
T1 sequence (P11597 18-493): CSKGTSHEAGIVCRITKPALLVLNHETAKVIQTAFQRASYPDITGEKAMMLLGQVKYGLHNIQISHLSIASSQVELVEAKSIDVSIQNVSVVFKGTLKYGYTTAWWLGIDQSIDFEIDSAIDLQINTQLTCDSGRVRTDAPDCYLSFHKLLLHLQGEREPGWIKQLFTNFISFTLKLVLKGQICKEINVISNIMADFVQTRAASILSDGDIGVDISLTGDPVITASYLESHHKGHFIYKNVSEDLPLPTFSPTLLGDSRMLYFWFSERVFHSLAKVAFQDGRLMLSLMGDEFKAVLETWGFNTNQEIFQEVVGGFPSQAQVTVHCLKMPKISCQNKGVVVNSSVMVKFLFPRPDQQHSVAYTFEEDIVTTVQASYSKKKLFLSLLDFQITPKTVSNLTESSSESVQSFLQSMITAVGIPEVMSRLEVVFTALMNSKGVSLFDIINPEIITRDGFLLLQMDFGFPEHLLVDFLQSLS
Experimental: (§1) In Vitro Radioactive Assays of CETP-Catalyzed CE and TG Transfer (RTA Assay)
(§2) Reagents and sources are: [3H] cholesteryl oleate (GE #TRK.886), [3H] Triolein (Perkin-Elmer NET-431), Butylated hydroxyl toluene (Aldrich, #D4740-4), DOPC (Sigma, #P6354), Sodium Bromide (Fisher scientific #S255-500), PEG 8000 (Fisher, #BP233-1), and human HDL (Intracel Corp #RP-036).
(§3) An in vitro assay for determining IC50's to identify compounds that inhibit CETP transfer activity is performed based on a modification of a published method (Morton and Zilversmit, (1981) A plasma inhibitor of triglyceride and cholesteryl ester transfer activities, J. Biol. Chem. 256(23), 11992-11995). The ability of inhibitors to alter CETP activity is performed using two different assays: one using recombinant CETP and one using an endogenous plasma source of CETP. Both assays measure the transfer of [3H] cholesteryl oleate or [3H] triolein from exogenous LDL to HDL.
(§4) Radiolabeled donor particles are generated by first combining 100 μl of 200 μM butylated hydroxyl toluene in CHCl3, 216 μL of 21.57 mM DOPC in EtOH, and either 500 μCi [3H]-triolein (Perkin Elmer #NET-431) or 500 μCi [3H]-cholesteryl oleate (GE #TRK886) in a glass tube. Reagents are mixed, dried under nitrogen, and then resuspended in 2 mL of 50 mM Tris, 27 μM EDTA at pH 7.4. After a brief vortex, the solution is sonicated until clear and mixed with 20 mL of fresh human serum. The mixture is incubated overnight at 37° C. The [3H] labeled LDL substrate is separated at 1.063 g/ml density by sequential ultracentrifugal flotation in NaBr according to the method of Havel, Eder, et al., 1955, and Chapman, Goldstein, et al., 1981. Once isolated the particles are dialyzed 3× in CETP buffer (50 mM Tris, pH 7.4, 100 mM NaCl, 1 mM EDTA). Human HDL is purchased from Intracel and used as the acceptor particles.
(§5) Transfer assays are performed in a 96-well v-bottom polypropylene plate. For the RTA using recombinant CETP (2% RTA), an assay cocktail is prepared with the final concentrations 128 μg/mL HDL, 20 nM rCETP, 2% human serum, and 1×CETP buffer. 1 μL of each test compound diluted in DMSO is added to 47 μL of assay cocktail per well and incubated at 37° C. for 1 hour. To initiate the transfer reaction, 2 μL radiolabeled LDL is added. After an additional 60 min of incubation at 37° C., the transfer action is terminated by precipitation of LDL with an equal volume of 20% W/V PEG 8000. The plates are centrifuged at 2000 rpm for 30 minutes at 4° C. A 40 μL aliquot of the HDL-containing supernatant is transferred to a Packard Optiplate™ with 200 μL of MicroScint™ 20. After mixing, plates are counted by liquid scintillation. Counts present in the supernatant for blanks (wells containing only HDL acceptor, CETP buffer and DMSO) are subtracted from those containing test compounds and used to correct for non-specific transfer.
(§6) Comparison of the counts of samples with inhibitors to an uninhibited (DMSO only) positive control yield a percent inhibition. A plot of percent inhibition vs. log of inhibitor concentration, fit to a Sigmoidal 4 parameter equation is used to calculate IC50.

[1] = molecular target: T2, endogenous CETP from human serum (Homo sapiens, UniProt P11597); test: RTA assay using endogenous CETP from serum (95% RTA); assay type: biochemical; conditions: 95% human serum
T2 construct: yielding a concentration of approximately 15 nM endogenous CETP in the assay; from tissue; host or cells: human serum
T2 sequence (P11597 18-493): T1 sequence (P11597 18-493)
Experimental: as §1, §2, §3, §4, §5
For the transfer assay using endogenous CETP from serum (95% RTA), the same procedure is used except that human serum is added such that a final concentration of serum of 95% of the total assay volume is achieved, yielding a concentration of approximately 15 nM endogenous CETP in the assay. This is then combined with HDL and CETP buffer and the reaction proceeds as above and is terminated as described.
as §6

[2] = cited from earlier work
[3] = Phase III outcomes trial, cited from earlier work
[4] = patients on baseline statin therapy, compared with patients treated with just a statin

Structure (SMILES)	IC50 (recombinant CETP) [nM]	IC50 [1] [nM]	also measured
CC1(O)CN(c2cccc(C3(Cc4cccc(OC(F)(F)F)c4)CN(C[C@@H](O)C(F)(F)F)c4ccccc43)c2)C1 (stereo partly shown) [Example 33]	1230	4380	–
O[C@H](CN1CC(Cc2cccc(OC(F)(F)F)c2)(c2cccc(N3CC(F)C3)c2)c2ccccc21)C(F)(F)F (stereo partly shown) [Example 34]	59	319	–
O[C@H](CN1CC(Cc2cccc(OC(F)(F)F)c2)(c2cccc(N3CCC(F)(F)C3)c2)c2ccccc21)C(F)(F)F (stereo partly shown) [Example 35]	98	533	–
CO[C@@H]1CCN(c2cccc(C3(Cc4cccc(OC(F)(F)F)c4)CN(C[C@@H](O)C(F)(F)F)c4ccccc43)c2)C1 (stereo partly shown) [Example 36]	115	780	–
CO[C@H]1CCN(c2cccc(C3(Cc4cccc(OC(F)(F)F)c4)CN(C[C@@H](O)C(F)(F)F)c4ccccc43)c2)C1 (stereo partly shown) [Example 37]	77	395	–
C[C@H]1CN(c2cccc(C3(Cc4cccc(OC(F)(F)F)c4)CN(C[C@@H](O)C(F)(F)F)c4ccccc43)c2)CCO1 (stereo partly shown) [Example 38]	117	674	–
O[C@H](CN1CC(Cc2cccc(OC(F)(F)F)c2)(c2cccc(N3CCC(F)(F)CC3)c2)c2ccccc21)C(F)(F)F (stereo partly shown) [Example 39]	164	1080	–
O[C@H](CN1CC(Cc2cccc(OC(F)(F)F)c2)(c2cccc(N3CCCC(F)(F)C3)c2)c2ccccc21)C(F)(F)F (stereo partly shown) [Example 40]	119	791	–
O[C@H](CN1CC(Cc2cccc(OC(F)(F)F)c2)(c2cccc(N3CC[C@H](F)C3)c2)c2ccccc21)C(F)(F)F (stereo partly shown) [Example 41]	72	498	–
O[C@H](CN1CC(Cc2cccc(OC(F)(F)F)c2)(c2cccc(N3CC[C@@H](F)C3)c2)c2ccccc21)C(F)(F)F (stereo partly shown) [Example 42]	40	766	–
C[C@@H]1CN(c2cccc(C3(Cc4cccc(OC(F)(F)F)c4)CN(C[C@@H](O)C(F)(F)F)c4ccccc43)c2)CCO1 (stereo partly shown) [Example 43]	97	932	–
OC1CCN(c2cccc(C3(Cc4cccc(OC(F)(F)F)c4)CN(C[C@@H](O)C(F)(F)F)c4ccccc43)c2)C1 (stereo partly shown) [Example 44]	489	2040	–
N#Cc1cccc(CC2(c3cccc(OC(F)(F)F)c3)CN(C[C@@H](O)C(F)(F)F)c3ccccc32)c1 (stereo partly drawn) [Example 45, 3-((1-((R)-3,3,3-trifluoro-2-hydroxypropyl)-3-(3-(trifluoromethoxy)phenyl)indolin-3-yl)methyl)benzonitrile]	171	917	–
CS(=O)(=O)c1cccc(CC2(c3cccc(OC(F)(F)F)c3)CN(C[C@@H](O)C(F)(F)F)c3ccccc32)c1 (stereo partly drawn) [Example 46, (2R)-1,1,1-trifluoro-3-(3-(3-(methylsulfonyl)benzyl)-3-(3-(trifluoromethoxy)phenyl)indolin-1-yl)propan-2-ol]	264	8960	–
O[C@H](CN1CC(Cc2cccc(-c3cccc(OC(F)(F)F)c3)c2)(c2cccc(OC(F)(F)F)c2)c2ccccc21)C(F)(F)F (stereo partly drawn) [Example 47, (2R)-1,1,1-trifluoro-3-(3-((3′-(trifluoromethoxy)-[1,1′-biphenyl]-3-yl)methyl)-3-(3-(trifluoromethoxy)phenyl)indolin-1-yl)propan-2-ol]	720	2880	–
O[C@H](CN1CC(Cc2cccc(N3CC(F)(F)C3)c2)(c2cccc(OC(F)(F)F)c2)c2ccccc21)C(F)(F)F (stereo partly drawn) [Example 48, (2R)-3-(3-(3-(3,3-difluoroazetidin-1-yl)benzyl)-3-(3-(trifluoromethoxy)phenyl)indolin-1-yl)-1,1,1-trifluoropropan-2-ol]	83	246	–
CO[C@H]1CCN(c2cccc(CC3(c4cccc(OC(F)(F)F)c4)CN(C[C@@H](O)C(F)(F)F)c4ccccc43)c2)C1 (stereo partly shown) [Example 49]	197	2100	–
C[C@H]1CN(c2cccc(CC3(c4cccc(OC(F)(F)F)c4)CN(C[C@@H](O)C(F)(F)F)c4ccccc43)c2)CCO1 (stereo partly shown) [Example 50]	474	4930	–
C[C@@H]1CN(c2cccc(CC3(c4cccc(OC(F)(F)F)c4)CN(C[C@@H](O)C(F)(F)F)c4ccccc43)c2)CCO1 (stereo partly shown) [Example 51]	1610	1720	–
O[C@H](CN1CC(Cc2cccc(N3CC(F)C3)c2)(c2cccc(OC(F)(F)F)c2)c2ccccc21)C(F)(F)F (stereo partly shown) [Example 52]	447	5840	–
CC1(O)CN(c2cccc(CC3(c4cccc(OC(F)(F)F)c4)CN(C[C@@H](O)C(F)(F)F)c4ccccc43)c2)C1 (stereo partly shown) [Example 53]	680	8050	–
O[C@H](CN1CC(Cc2cccc(N3CCC(F)(F)C3)c2)(c2cccc(OC(F)(F)F)c2)c2ccccc21)C(F)(F)F (stereo partly shown) [Example 54]	510	3650	–
O[C@H](CN1CC(Cc2cccc(N3CC4(COC4)C3)c2)(c2cccc(OC(F)(F)F)c2)c2ccccc21)C(F)(F)F (stereo partly shown) [Example 55]	98	533	–
O[C@H](CN1CC(Cc2cccc(N3CCC(F)(F)CC3)c2)(c2cccc(OC(F)(F)F)c2)c2ccccc21)C(F)(F)F (stereo partly shown) [Example 56]	413	6940	–
O[C@H](CN1CC(Cc2cccc(N3CC[C@H](F)C3)c2)(c2cccc(OC(F)(F)F)c2)c2ccccc21)C(F)(F)F (stereo partly shown) [Example 57]	350	3680	–
O[C@H](CN1CC(Cc2cccc(N3CC[C@@H](F)C3)c2)(c2cccc(OC(F)(F)F)c2)c2ccccc21)C(F)(F)F (stereo partly shown) [Example 58]	171	1410	–
O[C@H](CN1CC(Cc2cccc(N3CCCC(F)(F)C3)c2)(c2cccc(OC(F)(F)F)c2)c2ccccc21)C(F)(F)F (stereo partly shown) [Example 59]	198	1420	–
COC(=O)c1cccc(CC2(c3cccc(OC(F)(F)F)c3)CN(C[C@@H](O)C(F)(F)F)c3ccccc32)c1 (stereo partly drawn) [Example 60, Methyl 3-((1-((R)-3,3,3-trifluoro-2-hydroxypropyl)-3-(3-(trifluoromethoxy)phenyl)indolin-3-yl)methyl)benzoate]	668	937	–
COc1cc(F)c(C(C)C)cc1-c1ccc(C(F)(F)F)cc1CN1C(=O)O[C@H](c2cc(C(F)(F)F)cc(C(F)(F)F)c2)[C@@H]1C [anacetrapib]	–	–	decrease of LDL-C [2, 4]: 40%; increase of HDL-C [2, 4]: 138%; increase in mortality ([2]; patients treated with anacetrapib, DEFINE trial): unlikely
CCC(CC)CC1(C(=O)Nc2ccccc2SC(=O)C(C)C)CCCCC1 [dalcetrapib]	–	–	clinical benefit (interim data) ([3]; terminated early): did not show a clinical benefit; safety issues [3]: no safety issues detected
